{
  "source": "patent US10377731B2",
  "about": "“Compositions and methods for cancer treatment” (Boston Biomedical, Inc., priority 2007, dated 2019)",
  "key": {"[1]": {"system": "Stat3", "test": "Stat3-luciferase (Stat3-Luc) reporter assay, OSM-stimulated HeLa cells", "assay_type": "cell-based", "settings": "HeLa cells", "description": "Luciferase Reporter Assay: HeLa Cells were co-transfected with Stat3-luciferase (Stat3-Luc) reporter vector (Panomics, Fremont, Calif.) and Renilla luciferase (Promega, Madison, Wis.) using Lipofectamine 2000 as described by the manufacturer (Invitrogen). Following transfection, cells were maintained in medium containing 0.5% FBS for 24 hours. Cells were then treated with the indicated compound for 30 minutes prior to the addition of 25 ng/ml oncostatin M (OSM) (R&D Systems, Minneapolis, Minn.) to the medium. 6 hours following OSM addition, cells were harvested and levels of firefly and renilla luciferase were measured using the Dual-Glo Luciferase Assay System as described by the manufacturer (Promega).\nInhibition of Stat3 transcription activity. Compounds were tested for their ability to inhibit Stat3 transcription activation activity in cells using a Stat3-luciferase (Stat3-luc) reporter construct. Cells transfected with Stat3-luc were cultured in reduced serum medium prior to addition of indicated compound for 30 minutes. Cells were then stimulated with 25 ng/ml oncostatin M (OSM) for 6 hours followed by detection of Stat3-luc reporter activity. […] AG490, a known inhibitor of the Jak-Stat pathway, was included as a positive control for Stat3 inhibition."}, "[2]": {"system": "Stat3", "test": "Stat3 DNA binding assay (EMSA), HeLa nuclear extract", "assay_type": "biochemical", "settings": "HeLa nuclear extract with constitutively activated Stat3", "description": "STAT3 DNA Binding Assay: Electrophoretic mobility shift assay (EMSA) was performed as described by the manufacturer (Li-Cor Biosciences, Lincoln, Nebr.). Briefly, nuclear extracts were made from HeLa cells using the NucBuster Protein Extraction Kit as described by the manufacturer (EMD Biosciences, San Diego, Calif.). 5 μg of nuclear extract was pre-incubated with the indicated dose of indicated compound for 30 minutes prior to a 15-minute incubation with the IR700-labeled consensus Stat3 oligonucleotide. Samples were then electrophoresed on a polyacrylamide gel and directly scanned using the Odyssey infrared imaging system (Li-Cor Biosciences). For the enzyme-linked immunosorbent assay (ELISA), 5 μg of nuclear extract was preincubated with indicated concentration of indicated compound for 30 minutes prior to the addition of biotinylated oligo (5′-Biotin-[…]-3′ SEQ ID NO. 1). Stat3-DNA complexes were then captured on streptavidin coated 96 well plates (Pierce, Rockford, Ill.). Bound complexes were then incubated with Stat3 polyclonal antibody (Santa Cruz Biotechnology, Santa Cruz, Calif.) followed by anti-rabbit HRP conjugated secondary antibody (GE Healthcare, Pittsburgh, Pa.). Bound antibody was then visualized by addition of TMB substrate (Pierce) and absorbance measured at 450 nm.\nInhibition of Stat3 DNA-binding activity. Nuclear extracts from HeLa cells, which contain constitutively activated Stat3 as detected by phosphorylation at the tyrosine 705 residue, were used to perform Stat3 EMSAs to monitor Stat3 DNA binding activity. Nuclear extracts were incubated with indicated compound prior to incubation with IR700-labeled Stat3 consensus oligonucleotide. Binding of Stat3 to the oligonucleotide was monitored by gel electrophoresis and detection using a LiCor Odyssey infrared scanner."}, "[3]": {"system": "Hoechst side population cells", "test": "Annexin V staining of Hoechst side population cells", "assay_type": "cell-based", "settings": "Hoechst side population cells treated with compound", "description": "Hoechst Side Population: To identify and isolate side population (SP) and non-SP fractions, SW480 cells were removed from the culture dish with trypsin and EDTA, pelleted by centrifugation, washed with phosphate-buffered saline (PBS), and resuspended at 37° C. in Dulbecco's modified Eagle's medium (DMEM) containing 2% FBS and 1 mM HEPES. The cells were then labeled with Hoechst 33342 (Invitrogen) at a concentration of 5 μg/mL. The labeled cells were incubated for 120 minutes at 37° C., either alone or with 50 μM verapamil (Sigma-Aldrich, St. Louis). After staining, the cells were suspended in Hanks' balanced saline solution (HBSS; Invitrogen) containing 2% FBS and 1 mM HEPES, passed a through 40 μm mesh filter, and maintained at 4° C. until flow cytometry analysis. The Hoechst dye was excited at 350 nm, and its fluorescence was measured at two wavelengths using a 450 DF10 (450/20 nm band-pass filter) and a 675LP (675 nm long-pass edge filter) optical filter. The gating on forward and side scatter was not stringent, and only debris was excluded.\nAnalysis of Apoptosis: Cells treated with or without compound were harvested at 5 hours post treatment for Annexin-V staining. Collected cells were washed with PBS and resuspended in Annexin-V-FITC containing buffer and stained according to manufactures directions (Roche). Annexin-V positive cells were determined by Flow cytometry. […]"}, "[4]": {"system": "A549 human lung cancer cells", "test": "72 hour MTT, A549 cells, single drugs and combinations", "assay_type": "cell-based", "settings": "72 hour MTT A549 cells, read-out: Compound 401 (% Inhibition)", "description": "Cell Viability Determination: For 3-(4,5 dimethylthiazol-2-yl)-2,5-diphenyltetrazolium (MTT) (Sigma-Aldrich, St. Louis, Mo.) analysis, cells were plated in 96 well plates at 10,000 cells per well. 24 hours after plating, compound was added to cells at indicated doses. […] following compound addition, MTT was added to each well (0.5 mg/ml, final concentration) and plates were incubated for an additional 2 hours at 37° C. Medium was then aspirated and the formazan product was solubilized in 100 μl of isopropyl alcohol. The absorbance of each well was measured at 570 nm using a microplate reader.\nPaca2 human pancreatic cancer cells, A549 human lung cancer cells, and HepG2 human liver cancer cells (American Type Culture Collection) were cultured in Dulbecco's modified Eagle's medium containing 10% fetal bovine serum, 100 units/mL penicillin, 100 μg/mL streptomycin, and 2 mM L-glutamine. […] Erlotinib was from American Custom Chemicals (San Diego, Calif.). Gemcitabine was from Eli Lilly (Indianapolis, Ind.) in an aqueous 20 mM stock solution. Sorafenib was Mass.). Unless otherwise noted all compounds were solubilized in DMSO at 10 mM and aliquoted at −20° C. Exponentially growing Paca2 pancreatic cancer cells were seeded at 1,000 cells per well in 6-well plates and allowed to attach for 24 hours. Increasing concentrations of individual drugs and those in combination were then added to the media for another 24 hours. After 24 hours exposure, the drug was removed and fresh media was added for the next 10-14 days, allowing for colony formation. Cells were fixed and stained with GIEMSA (Gibco BRL). […] Results are an average of duplicate experiments. Alternatively, MTT assays were performed 72 hours post-treatment in A549 and HepG2 cells."}},
  "note": "“Also recorded” adds a separate entry of the source.",
  "data": [
    {"smiles": "CC(=O)c1cc2c(o1)C(=O)c1ccccc1C2=O", "note": "[Compound 401, 2-acetylnaphtho[2,3-b]furan-4,9-dione]", "values": [
      {"measurement": "Inhibition of OSM-stimulated Stat3 reporter activity (in words)", "setting": "[1]; Stat3-luc, 25 ng/ml OSM for 6 hours", "value": "inhibits"},
      {"measurement": "IC50", "setting": "[1]; Homo sapiens, compound 30 minutes before 25 ng/ml oncostatin M, read 6 hours later, read-out: IC50 in Stat3-Luc assays", "value": "~250", "unit": "nM"},
      {"measurement": "Inhibition of Stat3 DNA-binding activity (in words)", "setting": "[2]", "value": "Dose dependent inhibition; also recorded: can inhibit"},
      {"measurement": "Mode of cell death, Annexin V staining", "setting": "[3]", "value": "dying cells are Annexin V positive; also recorded: apoptotic"},
      {"measurement": "inhibition at 0.25 µM", "setting": "[4]; 401 alone 250 nM", "value": 36, "unit": "%"},
      {"measurement": "inhibition at 0.5 µM", "setting": "[4]; 401 alone 500 nM", "value": 35, "unit": "%"}
    ]}
  ]
}
